According to patent US10653741B2, “Herbo-mineral formulation for the treatment of cardio vascular diseases and method of preparation thereof” (Muniyal Ayurvedic Research Centre, priority 2017, dated 2020):

Legend:
[1] = Body weight, ISP induced myocardial infarction study; assay type: in vivo, Sprague-Dawley rats; settings: Carvedilol 2 mg/kg + ISP, Mean ± SEM
From the text: (§1) Animals: 35 male Sprague-Dawley rats of 150-200 g body weight were selected for the study. Animals were housed in individual polycarbonate cages in a well-ventilated room under an ambient temperature of 23±2 degree C. and 40-65% relative humidity, with artificial photoperiod 12-h light/12-h dark cycle. They were provided with standard rodent pellet diet (Nutrilab Rodent, Tetragon Chemie, India) and purified water ad libitum (RIOS, USA). Experimental animals were acclimatized for 7 days to the laboratory conditions prior to experimentation. The study protocol was approved by Institutional Animal Ethical Committee (IAEC).
(§2) Experimental groups and design: Rats were randomized into 5 groups based on the body weight. ISP (120 mg/kg) was injected subcutaneously to rats on 19th and 21st day to induce experimental myocardial infarction. Test drug was orally administered throughout the study. • Group I (Normal control): 0.5% CMC • Group II (Positive control): 0.5% CMC+ISP (120 mg/kg) • Group III (Standard): Carvedilol (2 mg/kg/day, p.o)+ISP (120 mg/kg, s.c.) • Group IV (Low dose): Test drug (50 mg/kg/day, p.o)+ISP (120 mg/kg, s.c.) • Group V (High dose): Test drug (100 mg/kg/day, p.o)+ISP (120 mg/kg, s.c.)
(§3) The change in body weight was recorded every week. At the end of the experiment, blood was collected and the plasma was separated for biochemical investigation. The animals were euthanized and the organs (heart, Kidney and adrenals) were dissected out and weighed. Heart homogenate was used for further analysis and LV was separated for the analysis of apoptotic marker gene expression as depicted in the various examples hereunder.

[2] = Organ weight, ISP induced myocardial infarction study; assay type: in vivo, Sprague-Dawley rats; settings: Carvedilol 2 mg/kg + ISP
From the text: as §1, §2, §3

Organ weight: Adrenals ([2]; Mean ± SEM): 0.02 ± 0.00 g
Organ weight: Kidney ([2]; Mean ± SEM): 0.68 ± 0.10 g
Compound: COc1ccccc1OCCNCC(O)COc1cccc2[nH]c3ccccc3c12 (centres unmarked) [Carvedilol]
Body weight ([1]; 0th day): 211.00 ± 1.70 g
Body weight ([1]; 7th day): 210.57 ± 3.22 g
Body weight ([1]; 14th day): 218.43 ± 4.37 g
Body weight ([1]; 21st day): 216.43 ± 1.58 g
Organ weight: Heart, percent in brackets (compared with Positive control) [2]: 13.1%
Organ weight: Heart ([2]; Mean ± SEM): 0.44 ± 0.07 g
